Reference: patent publication US20150342906A1, “Anti-sneeze and nose vestibule care - compositions, methods, and devices” (priority 2014, published 2015)

Assay: oral 10 mg cetirizine pill during allergic reaction
Assay type: in vivo, human
Conditions: person, 10 mg pill around noon
Procedure: The irritants in degraded fall leaves and yard debris caused an overwhelming allergic reaction. They took a pill of 10 mg cetirizine around 12 o'clock noon time. […] They suffered a severe running nose and sneezes. They used the anti-sneeze sticks and cotton swabs described in previous examples frequently.

With `O=C(O)COCCN1CCN(C(c2ccccc2)c2ccc(Cl)cc2)CC1` (stereo not shown) [cetirizine] the “effect of oral drug on allergic reaction, running nose and sneezes” value was “did not take effect as expected”.
